Source: ChEMBL document CHEMBL5108002, “Design, synthesis, and biological evaluation of novel 7-substituted 10,11-methylenedioxy-camptothecin derivatives against drug-resistant small-cell lung cancer in vitro and in vivo” (Eur J Med Chem, 2022)
The source made the active and inactive calls. No cut-off for these calls is given here.

What was measured:
H69AR [1] = assay: Antiproliferative activity against human NCI-H69AR cells assessed as inhibition of cell growth incubated for 72 hrs by SRB assay; type: functional, cell-based
2008 = assay: Antiproliferative activity against human 2008 cells assessed as inhibition of cell growth incubated for 72 hrs by SRB assay; type: functional, cell-based; details: Homo sapiens, 2008, 72 h
NCI-H69 [2] = assay: Induction of apoptosis in human NCI-H69 cells assessed as reduction in XIAP mRNA expression at 0.1 to 100 nM incubated for 24 hrs by RT-PCR analysis; type: functional, cell-based; details: dose 0.1-100 nM
NCI-H446 [3] = assay: Induction of apoptosis in human NCI-H446 cells assessed as early apoptotic cells at 10 nM incubated for 24 hrs by AnnexinV-FITC/PI staining based flow cytometry analysis (reference value: 3.1 %); type: functional
H69AR [4] = assay: Induction of apoptosis in human NCI-H69AR cells assessed as dead cells at 100 nM incubated for 24 hrs by AnnexinV-FITC/PI staining based flow cytometry analysis (reference value: 1.92 %); type: functional
NCI-H446 [5] = assay: Antiproliferative activity against etoposide/cisplatin combination-resistant human NCI-H446 cells assessed as inhibition of cell growth incubated for 72 hrs by SRB assay; type: functional, cell-based; details: NCI-H446, 72 h
NCI-H69 [6] = assay: Induction of apoptosis in human NCI-H69 cells assessed as reduction in survivin mRNA expression at 0.1 to 100 nM incubated for 24 hrs by RT-PCR analysis; type: functional, cell-based; details: dose 0.1-100 nM
H69AR [7] = assay: Induction of apoptosis in human NCI-H69AR cells assessed as inhibition of survivin protein expression at 0.1 to 100 nM incubated for 24 hrs by Western blot analysis; type: functional, cell-based; details: dose 0.1-100 nM
NCI-H446 [8] = assay: Antitumor activity against etoposide/cisplatin combination-resistant human NCI-H446 cells xenografted in BALB/c nude mouse assessed as tumor growth inhibition at 3 mg/kg, IG administered once a week and measured 3 times a week relative to control; type: functional; details: NCI-H446, po, read-out: TGI
NCI-H69 [9] = assay: Induction of apoptosis in human NCI-H69 cells assessed as inhibition of Mcl-1 protein expression at 0.1 to 100 nM incubated for 24 hrs by Western blot analysis; type: functional, cell-based; details: dose 0.1-100 nM
NCI-H446 [10] = assay: Antitumor activity against human NCI-H446 cells xenografted in BALB/c nude mouse assessed as tumor growth inhibition at 3 mg/kg, IG administered once a week for 28 days by electronic caliper method relative to control; type: functional; details: NCI-H446, po, 672 h, time 28 day, read-out: TGI
NCI-H446 [11] = assay: Induction of apoptosis in human NCI-H446 cells assessed as dead cells at 1 nM incubated for 24 hrs by AnnexinV-FITC/PI staining based flow cytometry analysis (reference value: 0.22 %); type: functional

For CC[C@@]1(O)C(=O)OCc2c1cc1n(c2=O)Cc2c-1nc1cc3c(cc1c2-c1ccoc1)OCO3, the IC50 (H69AR [1]) was 5.57 nM, the IC50 2008 was 10.2 nM and the Activity (NCI-H69 [2]) was “Active”. It also gave an Activity (NCI-H446 [3]) of 15.81%, an Activity (H69AR [4]) of 1.47% and an IC50 (NCI-H446 [5]) of 0.49 nM. For the same molecule, the Activity (NCI-H69 [6]) was “Active”, the inhibition (H69AR [7]) was “Active” and the inhibition in vivo at 3 mg/kg (NCI-H446 [8]) was 84.5%. For the same molecule, the inhibition (NCI-H69 [9]) was “Active”, the inhibition in vivo at 3 mg/kg (NCI-H446 [10]) was 95.5% and the Activity (NCI-H446 [11]) was 3.79%.
